This is an account of results in ChEMBL document CHEMBL1201862, “PubChem BioAssay data set” (2004).

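Briefly, cells in 96-well plates were exposed to five compound concentrations for 48 h, and endpoints were estimated by linear interpolation. At the GI50, growth is halved.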 Activity calls are given as the source filed them. Cut-off read from the data, not from the text of the source: active = GI50 up to about 1.1 µM and inactive = higher. Some results are limits rather than exact numbers.

Assay in all cases: NCI-60 cell line screen, 48 h
In test [1] the test system is HCT-15.
The test system of test [2] is SNB-19.
The test system of test [3] is SK-MEL-5.
Test [4] has as its system NCI-H226.
Test [5] relates to CCRF-CEM.
Test [6] relates to CAKI-1.
Test [7] relates to K562.
Test [8] concerns HT-29.
Test [9] has as its system OVCAR-4.
The test system of test [10] is DU-145.
Test [11] relates to NCI/ADR-RES.
The subject of test [12] is SK-OV-3.
The test system of test [13] is SF-295.
Test [14] concerns COLO 205.
Test [15] has as its system UO-31.
Test [16] deals with UACC-62.
Test [17] relates to MOLT-4.
In test [18] the test system is MCF7.
In test [19] the test system is A498.
The test system of test [20] is SK-MEL-2.

`COc1cc(/C=C/c2ccc(/C=C/c3cc(OC)c(OC)c(OC)c3)cc2)cc(OC)c1OC`: the GI50 in [1] is more than 100 µM; in [2], 13.6 µM (inactive); in test [3], 34.4 µM (inactive); in test [4], 20.3 µM (inactive); in test [5] it was > 100 µM (inactive); in test [6], 21.6 µM (inactive). Moreover, the GI50 in [7] is 96.2 µM (inactive); in [8], 8.26 µM (inactive); in test [9], 3.98 µM (inactive); in [10], 88.7 µM (inactive); in [11], 22.2 µM (inactive); in [12], 6 µM (inactive). The GI50 is 10.9 µM (inactive) in test [13]; 51.3 µM (inactive) in [14]; 36.1 µM (inactive) in [15]; 7.89 µM (inactive) in test [16]; > 100 µM (inactive) in [17]; > 100 µM (inactive) in [18]. The results for the GI50 in test [19] and in [20] were 10.5 µM (inactive) and 20.7 µM (inactive), respectively.

Regarding `COC(=O)[C@@H]1c2c(oc3cc(CO)cc(O)c3c2=O)C=C[C@H]1O`, the GI50 in test [1] is 2.7 µM; in test [2] it was 17.7 µM (inactive); in test [3], 5.73 µM (inactive); in test [4], 25.8 µM (inactive); in test [5], 1.69 µM (inactive); in test [6], 8 µM (inactive). The GI50 in test [7] was 3.28 µM (inactive); in [8], 3.39 µM (inactive); in test [9], 3.52 µM (inactive); in test [10], 3.24 µM (inactive); in test [11], 17.9 µM (inactive); in test [12] it was 20.5 µM (inactive). For the same compound, the GI50 is 18.4 µM (inactive) in test [13]; 5.5 µM (inactive) in test [14]; 3.78 µM (inactive) in test [15]; 12.3 µM (inactive) in test [16]; 4.52 µM (inactive) in [17]; 2.86 µM (inactive) in [18]. The GI50 in test [19] was 7.26 µM (inactive); in test [20], 15.2 µM (inactive).

As for `C=C1CC(COc2ccc3c(C)c(C)c(=O)oc3c2C)(c2ccccc2)OC1=O` (stereo not given), the GI50 in test [1] is 1.88 µM; in test [2] it was 13.5 µM (inactive); in test [3] it was 1.59 µM (inactive); in [4] it was 2.27 µM (inactive); in test [5], 0.333 µM (active); in test [6], 1.5 µM (inactive). The GI50 in [7] was 0.671 µM (active); in [8], 1.53 µM (inactive); in test [9] it was 2.32 µM (inactive); in [10], 2.07 µM (inactive); in test [11], 2.7 µM (inactive); in [12], 3.28 µM (inactive). The GI50 in test [13] was 5.66 µM (inactive); in [14], 1.6 µM (inactive); in test [15] it was 2.77 µM (inactive); in test [16], 1.69 µM (inactive); in test [17], 1.11 µM (active); in [18] it was 1.42 µM (inactive). Besides, the GI50 in test [19] is 2.7 µM (inactive); in test [20], 2.02 µM (inactive).

For the compound `COc1cc(C2c3cc4c(cc3OC(N3CCNCC3)C2C)OCO4)cc(OC)c1OC` (stereo not given), the GI50 in [1] is 0.893 µM; in test [2], 0.912 µM (active); in test [3], 0.38 µM (active); in [4], 1.83 µM (inactive); in [5], 0.538 µM (active); in test [6], 0.476 µM (active). Further, the GI50 in [7] is 0.413 µM (active); in test [8] it was 0.387 µM (active); in [9] it was 1.66 µM (inactive); in [10] it was 0.594 µM (active); in test [11], 0.597 µM (active); in [12] it was 0.476 µM (active). The GI50 in test [13] was 0.234 µM (active); in test [14] it was 0.416 µM (active); in test [15], 1.69 µM (inactive); in [16], 0.516 µM (active); in [17], 1.16 µM (inactive); in test [18] it was 0.385 µM (active). The GI50 in [19] was 0.726 µM (active); in test [20], 1 µM (active).

As for `Clc1ccc(Nc2nc(Cl)c3nc[nH]c3n2)cc1Cl`, the GI50 in test [1] is 21 µM; in [2], 37.2 µM (inactive); in [3] it was 20.1 µM (inactive); in test [4] it was 38.4 µM (inactive); in [5], 18.7 µM (inactive); in test [6] it was 3.29 µM (inactive). The GI50 was 37.2 µM (inactive) in [7]; 18.2 µM (inactive) in [8]; 52.7 µM (inactive) in [9]; 28.5 µM (inactive) in [10]; 35.6 µM (inactive) in [11]; 33.2 µM (inactive) in [12]. Also, the GI50 was 23.7 µM (inactive) in [13]; 18.6 µM (inactive) in test [14]; 26.9 µM (inactive) in [15]; 33.6 µM (inactive) in [16]; 24 µM (inactive) in [17]; 30.5 µM (inactive) in [18]. The GI50 was 18.4 µM (inactive) in test [19] and 21.8 µM (inactive) in test [20].

Take `CC(=O)N1c2ccccc2C23CCN(C)CC4C(C)OCC(C4CC2=O)C13` (stereo not given): the GI50 in test [1] is more than 100 µM; in test [2] it was > 100 µM (inactive); in test [3] it was > 100 µM (inactive); in test [4], > 100 µM (inactive); in [5], > 100 µM (inactive); in test [6], > 100 µM (inactive). In addition, the GI50 in test [7], in [8], in test [9], in [10], in test [11] and in [12] was > 100 µM (inactive) throughout. Moreover, the GI50 in test [13], in [14], in test [15], in test [16], in test [17] and in test [18] was > 100 µM (inactive) in each case. In addition, the GI50 in [19] and in [20] was > 100 µM (inactive) each time.

For the compound `Cc1ccc(N2C(=O)C(O)=C(C(=O)C(C)(C)C)C2c2ccc([N+](=O)[O-])cc2)cc1` (stereo not given), the GI50 in test [1] is 16.2 µM; in test [2] it was 19.4 µM (inactive); in test [3], 15.8 µM (inactive); in [4], 19.1 µM (inactive); in test [5], 26.3 µM (inactive); in test [6], 3.94 µM (inactive). Besides, the GI50 in [7] is 23.9 µM (inactive); in test [8], 17.6 µM (inactive); in [9], 6.71 µM (inactive); in test [10] it was 28.4 µM (inactive); in test [11], 19.5 µM (inactive); in test [12], 20.8 µM (inactive). The GI50 in test [13] was 20.9 µM (inactive); in test [14], 15.7 µM (inactive); in [15], 29.6 µM (inactive); in [16], 14.9 µM (inactive); in test [17], 7.26 µM (inactive); in [18] it was 17.7 µM (inactive). Also, the GI50 in test [19] is 29.3 µM (inactive); in [20], 24 µM (inactive).

Consider `O=[N+]([O-])c1ccc2nc(Cl)n[n+]([O-])c2c1`, for which the GI50 in [1] is 13.4 µM; in test [2], 25.5 µM (inactive); in [3] it was 6.68 µM (inactive); in test [4] it was 19.6 µM (inactive); in test [5], 1.06 µM (active); in test [6] it was 16 µM (inactive). Further, the GI50 was 1.15 µM (inactive) in test [7]; 11.7 µM (inactive) in test [8]; 12.2 µM (inactive) in test [9]; 17.9 µM (inactive) in [10]; 24.3 µM (inactive) in test [11]; 17.5 µM (inactive) in test [12]. Further, the GI50 in test [13] is 22.7 µM (inactive); in [14] it was 9.04 µM (inactive); in test [15] it was 17 µM (inactive); in test [16] it was 14 µM (inactive); in test [17], 1.15 µM (inactive); in [18] it was 5.52 µM (inactive). Besides, the GI50 was 0.65 µM (active) in test [19] and 15.2 µM (inactive) in [20].

As for `OCC12C3C4C5C3C1C5C42` (stereo not given), the GI50 in test [1] was more than 100 µM; in test [2], > 100 µM (inactive); in test [3], > 100 µM (inactive); in test [4], > 100 µM (inactive); in test [5] it was > 100 µM (inactive); in test [6] it was > 100 µM (inactive). Moreover, the GI50 in [7], in [8], in test [9], in test [10], in [11] and in test [12] was > 100 µM (inactive) throughout. Also, the GI50 in test [13], in test [14], in test [15], in [16], in test [17] and in test [18] was > 100 µM (inactive) in each case. In addition, the GI50 in test [19] and in [20] was > 100 µM (inactive) in each case.

Turning to `O=C(CCN1CCCC1)Nc1ccc2sc3ccccc3c(=O)c2n1`, the GI50 in [1] was 11.5 µM; in test [2], 13.1 µM (inactive); in [3], 11.8 µM (inactive); in test [4], 13.8 µM (inactive); in test [5], 10.2 µM (inactive); in test [6], 11.5 µM (inactive). The GI50 is 13.8 µM (inactive) in test [7]; 4.35 µM (inactive) in [8]; 13.2 µM (inactive) in [9]; 15.4 µM (inactive) in [10]; 13.3 µM (inactive) in [11]; 7.23 µM (inactive) in test [12]. Besides, the GI50 in [13] was 14.8 µM (inactive); in test [14], 11.1 µM (inactive); in [15], 11.7 µM (inactive); in [16], 12.6 µM (inactive); in test [17], 4.72 µM (inactive); in test [18], 13 µM (inactive). Further, the GI50 in [19] was 17.8 µM (inactive); in test [20] it was 13.3 µM (inactive).
